Laboratory results published in PMC12215270 (Nature Communications, 2025).

Columns and labels:
[1] = molecular target: T1, TgCet (RNA triphosphatase) (Toxoplasma gondii, UniProt S8F0G9); test: ATPase assay; assay type: biochemical
T1 sequence (S8F0G9 1-920): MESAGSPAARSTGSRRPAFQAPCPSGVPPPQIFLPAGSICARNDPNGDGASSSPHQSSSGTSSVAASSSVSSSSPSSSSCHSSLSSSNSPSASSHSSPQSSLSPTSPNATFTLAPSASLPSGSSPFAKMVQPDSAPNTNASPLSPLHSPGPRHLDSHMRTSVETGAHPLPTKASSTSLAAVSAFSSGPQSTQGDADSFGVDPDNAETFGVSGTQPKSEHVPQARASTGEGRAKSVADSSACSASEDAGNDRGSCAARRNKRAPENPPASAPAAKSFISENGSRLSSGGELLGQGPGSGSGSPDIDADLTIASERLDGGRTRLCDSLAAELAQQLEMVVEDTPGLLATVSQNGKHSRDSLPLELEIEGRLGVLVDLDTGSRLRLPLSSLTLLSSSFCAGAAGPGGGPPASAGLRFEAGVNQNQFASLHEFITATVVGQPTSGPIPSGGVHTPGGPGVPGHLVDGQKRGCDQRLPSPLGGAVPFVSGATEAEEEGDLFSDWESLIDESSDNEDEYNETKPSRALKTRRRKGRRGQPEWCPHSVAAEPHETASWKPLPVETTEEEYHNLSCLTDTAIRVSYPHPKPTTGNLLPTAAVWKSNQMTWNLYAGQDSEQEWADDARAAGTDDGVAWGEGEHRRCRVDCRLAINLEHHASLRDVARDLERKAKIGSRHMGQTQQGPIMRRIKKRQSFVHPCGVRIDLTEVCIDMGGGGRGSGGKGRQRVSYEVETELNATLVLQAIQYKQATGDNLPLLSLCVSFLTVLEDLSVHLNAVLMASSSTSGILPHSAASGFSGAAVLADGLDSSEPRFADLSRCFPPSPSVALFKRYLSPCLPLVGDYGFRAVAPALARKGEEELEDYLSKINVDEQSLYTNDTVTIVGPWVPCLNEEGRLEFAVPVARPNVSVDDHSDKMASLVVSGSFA

[2] = molecular target: T2, TgCmt (guanine-N7 methyltransferase) (Toxoplasma gondii, UniProt S8F527); test: in vitro RNA cap methylation, anti-m7G immuno-dot blot; assay type: biochemical
T2 sequence (S8F527 716-1283): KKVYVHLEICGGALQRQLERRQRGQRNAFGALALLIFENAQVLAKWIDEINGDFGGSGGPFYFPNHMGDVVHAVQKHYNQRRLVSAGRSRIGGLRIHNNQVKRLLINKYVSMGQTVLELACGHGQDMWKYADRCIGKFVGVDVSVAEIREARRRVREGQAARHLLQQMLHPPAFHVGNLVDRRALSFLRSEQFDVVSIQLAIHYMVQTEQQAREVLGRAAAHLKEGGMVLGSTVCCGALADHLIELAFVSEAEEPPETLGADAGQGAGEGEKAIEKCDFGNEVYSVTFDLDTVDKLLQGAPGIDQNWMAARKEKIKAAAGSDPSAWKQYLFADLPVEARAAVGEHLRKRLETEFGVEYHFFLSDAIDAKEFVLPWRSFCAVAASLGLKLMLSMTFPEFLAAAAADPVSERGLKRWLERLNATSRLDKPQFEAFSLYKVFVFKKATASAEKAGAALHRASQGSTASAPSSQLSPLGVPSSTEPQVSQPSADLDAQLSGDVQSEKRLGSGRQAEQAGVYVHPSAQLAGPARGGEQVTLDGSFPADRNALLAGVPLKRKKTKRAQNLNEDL

| SMILES | IC50 [1] | in vitro RNA cap methylation, anti-m7G immuno-dot blot [2] |
| --- | --- | --- |
| O=c1c(O)c(-c2cc(O)c(O)c(O)c2)oc2cc(O)cc(O)c12 [Myricetin] | 400 nM |  |
| Nc1ncnc2c1ncn2[C@@H]1O[C@H](C[C@@H](N)CC[C@H](N)C(=O)O)[C@@H](O)[C@H]1O [sinefungin] |  | sinefungin inhibits m^7GpppN32 synthesis in a concentration-dependent manner |
